Experimental data: patent US20260042731A1, “(2,4-DICHLOROPHENOXY)ACETIC ACID ANALOGS” (CORTEVA AGRISCIENCE LLC, priority 2022, published 2026)
Where “and” joins values, the source holds several entries; their conditions need not be identical. Identical values can stand only once. Like-named read-outs stand apart in the source and are kept apart here.

Columns and labels:
[1] = test system: Chenopodium album (CHEAL), common lambsquarters; assay: Postemergence herbicide evaluation, growth of Chenopodium album (CHEAL); type: in vivo; details: for Ave. CHEAL, percent reduction in plant size relative to the untreated control: 21 DAA; for pest or weed control at 280 g/ha / pest or weed control at 560 g/ha: Chenopodium album, post-emergence, percent reduction in plant size relative to untreated control, read-out: Ave. CHEAL
[2] = test system: Abutilon theophrasti (ABUTH), velvetleaf; assay: Postemergence herbicide evaluation, growth of Abutilon theophrasti (ABUTH); type: in vivo; details: for AVE. ABUTH, percent reduction in plant size relative to the untreated control: 21 DAA; for pest or weed control at 280 g/ha / pest or weed control at 560 g/ha: Abutilon theophrasti, post-emergence, percent reduction in plant size relative to untreated control, read-out: AVE. ABUTH
[3] = test system: weeds (ABUTH, AMATA, AMBEL, CHEAL, ERICA); assay: Postemergence herbicide evaluation, overall average % weed control across ABUTH, AMATA, AMBEL, CHEAL, ERICA; type: in vivo; details: post-emergence, average over the five weeds, read-out: Overall Ave % Weed Control; for pest or weed control at 280 g/ha: 280 g ae/ha; for pest or weed control at 560 g/ha: 560 g ae/ha
[4] = test system: Ambrosia artemisiifolia (AMBEL), common ragweed; assay: Postemergence herbicide evaluation, growth of Ambrosia artemisiifolia (AMBEL); type: in vivo; details: for AVE. AMBEL, percent reduction in plant size relative to the untreated control: 21 DAA; for pest or weed control at 280 g/ha / pest or weed control at 560 g/ha: Ambrosia artemisiifolia, post-emergence, percent reduction in plant size relative to untreated control, read-out: AVE. AMBEL
[5] = test system: Amaranthus rudis (AMATA), tall water hemp; assay: Postemergence herbicide evaluation, growth of Amaranthus rudis (AMATA); type: in vivo; details: for Ave. AMATA, percent reduction in plant size relative to the untreated control: 21 DAA; for pest or weed control at 280 g/ha / pest or weed control at 560 g/ha: Amaranthus tuberculatus, post-emergence, percent reduction in plant size relative to untreated control, read-out: Ave. AMATA
[6] = test system: ABUTH, AMATA, AMBEL, CHEAL, ERICA weeds; assay: Postemergence herbicide evaluation, overall average % weed control across ABUTH, AMATA, AMBEL, CHEAL, ERICA; type: in vivo; details: 21 DAA
Text: For example, the pesticidal activity may include herbicidal activity.

[7] = test system: glyphosate resistant Conyza canadensis (L.) (ERICA), horseweed; assay: Postemergence herbicide evaluation, growth of Conyza canadensis (ERICA); type: in vivo; details: for Ave. ERICA, percent reduction in plant size relative to the untreated control: 21 DAA; for pest or weed control at 280 g/ha / pest or weed control at 560 g/ha: Erigeron canadensis, post-emergence, percent reduction in plant size relative to untreated control, read-out: Ave. ERICA
[8] = Volatility of compounds measured by thermogravimetric analysis (TGA); type: physicochemical
Tall Waterhemp (AMATA) = assay: Greenhouse post-emergence mixture trials, percent visual control; type: in vivo; details: Trial Bridge 2, 21 DAA
Velvetleaf (ABUTH) = assay: as above; type: in vivo; details: Trial Bridge 2, ABUTH, 21 DAA, compound 0 g ae/ha
[9] = test system: Common Lambsquarters (CHEAL); assay: as above; type: in vivo; details: CHEAL, 21 DAA
Horseweed (ERICA) = assay: as above; type: in vivo; details: 21 DAA
Corn (ZEAMX) = assay: as above; type: in vivo; details: Trial Bridge 2, ZEAMX, 21 DAA
[10] = Trifludimoxazin 12.5 g ai or ae/ha alone (B2 rate 0)
[11] = Trifludimoxazin 25 g ai or ae/ha alone (B2 rate 0)
[12] = Trifludimoxazin 50 g ai or ae/ha alone (B2 rate 0)
[13] = Trial Bridge 2, Trifludimoxazin 25 g ai or ae/ha alone (B2 rate 0)
[14] = Trial Bridge 2, Trifludimoxazin 50 g ai or ae/ha alone (B2 rate 0)

## N/C(Cc1ccccc1)=N\OC(=O)COc1ccc(Cl)cc1Cl [Compound A17, N′-(2-(2,4-Dichlorophenoxy)acetoxy)-2-phenylacetimidamide]
[1]; 280 g ae/ha
  Ave. CHEAL, percent reduction in plant size relative to the untreated control: 85%
[1]; 560 g ae/ha
  Ave. CHEAL, percent reduction in plant size relative to the untreated control: 90%
[1]; 168 h, 280 g ae/ha, 7 DAA
  pest or weed control at 280 g/ha: 70%
[1]; 168 h, 560 g ae/ha, 7 DAA
  pest or weed control at 560 g/ha: 68%
[1]; 336 h, 280 g ae/ha, 14 DAA
  pest or weed control at 280 g/ha: 78%
[1]; 336 h, 560 g ae/ha, 14 DAA
  pest or weed control at 560 g/ha: 85%
[2]; 280 g ae/ha
  AVE. ABUTH, percent reduction in plant size relative to the untreated control: 65%
[2]; 560 g ae/ha
  AVE. ABUTH, percent reduction in plant size relative to the untreated control: 83%
[2]; 168 h, 280 g ae/ha, 7 DAA
  pest or weed control at 280 g/ha: 48%
[2]; 168 h, 560 g ae/ha, 7 DAA
  pest or weed control at 560 g/ha: 68%
[2]; 336 h, 280 g ae/ha, 14 DAA
  pest or weed control at 280 g/ha: 65%
[2]; 336 h, 560 g ae/ha, 14 DAA
  pest or weed control at 560 g/ha: 80%
[3]; 168 h, 7 DAA
  pest or weed control at 280 g/ha: 64%
  pest or weed control at 560 g/ha: 70%
[3]; 336 h, 14 DAA
  pest or weed control at 280 g/ha: 78%
  pest or weed control at 560 g/ha: 85%
[4]; 280 g ae/ha
  AVE. AMBEL, percent reduction in plant size relative to the untreated control: 92%
[4]; 560 g ae/ha
  AVE. AMBEL, percent reduction in plant size relative to the untreated control: 99%
[4]; 168 h, 280 g ae/ha, 7 DAA
  pest or weed control at 280 g/ha: 65%
[4]; 168 h, 560 g ae/ha, 7 DAA
  pest or weed control at 560 g/ha: 80%
[4]; 336 h, 280 g ae/ha, 14 DAA
  pest or weed control at 280 g/ha: 86%
[4]; 336 h, 560 g ae/ha, 14 DAA
  pest or weed control at 560 g/ha: 96%
[5]; 280 g ae/ha
  Ave. AMATA, percent reduction in plant size relative to the untreated control: 83%
[5]; 560 g ae/ha
  Ave. AMATA, percent reduction in plant size relative to the untreated control: 89%
[5]; 168 h, 280 g ae/ha, 7 DAA
  pest or weed control at 280 g/ha: 73%
[5]; 168 h, 560 g ae/ha, 7 DAA
  pest or weed control at 560 g/ha: 70%
[5]; 336 h, 280 g ae/ha, 14 DAA
  pest or weed control at 280 g/ha: 78%
[5]; 336 h, 560 g ae/ha, 14 DAA
  pest or weed control at 560 g/ha: 80%
[6]; 280 g ae/ha
  Overall Ave % Weed Control: 84%
[6]; 560 g ae/ha
  Overall Ave % Weed Control: 91%
[7]; 280 g ae/ha
  Ave. ERICA, percent reduction in plant size relative to the untreated control: 97%
[7]; 560 g ae/ha
  Ave. ERICA, percent reduction in plant size relative to the untreated control: 94%
[7]; 168 h, 280 g ae/ha, 7 DAA
  pest or weed control at 280 g/ha: 65%
[7]; 168 h, 560 g ae/ha, 7 DAA
  pest or weed control at 560 g/ha: 65%
[7]; 336 h, 280 g ae/ha, 14 DAA
  pest or weed control at 280 g/ha: 85%
[7]; 336 h, 560 g ae/ha, 14 DAA
  pest or weed control at 560 g/ha: 83%
[8]
  TGA Data (rate of weight loss, volatility): 4.1 µg/min

## C#CCN1C(=O)C(F)(F)Oc2cc(F)c(-n3c(=O)n(C)c(=S)n(C)c3=O)cc21 [Trifludimoxazin, trifludimoxazin]
Tall Waterhemp (AMATA); [10]
  % Control: 100%
Tall Waterhemp (AMATA); [11]
  % Control: 100%
Tall Waterhemp (AMATA); [12]
  % Control: 100%
Velvetleaf (ABUTH); Trifludimoxazin alone 12.5 g ai or ae/ha
  % Control: 100%
Velvetleaf (ABUTH); Trifludimoxazin alone 25 g ai or ae/ha
  % Control: 100%
Velvetleaf (ABUTH); Trifludimoxazin alone 50 g ai or ae/ha
  % Control: 100%
[9]; Trial Bridge 2, Trifludimoxazin 12.5 g ai or ae/ha alone (B2 rate 0)
  % Control: 100%
[9]; [13]
  % Control: 100%
[9]; [14]
  % Control: 100%
Horseweed (ERICA); [13]
  % Control: 25% and 30%
Horseweed (ERICA); [14]
  % Control: 30% and 25%
Corn (ZEAMX); [10]
  % Control: 5% and 10%
Corn (ZEAMX); [11]
  % Control: 15% and 5% and 10%
Corn (ZEAMX); [12]
  % Control: 15% and 20% and 10%
